Assay results from patent publication US20040072770A1, “Methods for specifically inhibiting histone deacetylase-7 and 8” (priority 2002, published 2004).
d = 2'-deoxy (DNA); m = 2'-O-methyl

Tests used:
[1] = test system: murine erythroleukemia cells; settings: Yoshida et al, Cancer Res. 47:3688-3691 (1987); cited from earlier work
mammalian HDAC = settings: Yoshida et al., J. Biol. Chem. 265:17174-17179 (1990); cited from earlier work
human HDAC-6 RNA = experiment: HDAC-6 RNA expression screen, Northern blot; type: cell-based; settings: screened as above (T24 cells, 100 nM, 24 hours)
Experimental: (§1) To identify antisense oligodeoxynucleotide (ODN) capable of inhibiting HDAC-1 expression in human cancer cells, eleven phosphorothioate ODNs containing sequences complementary to the 5′ or 3′ UTR of the human HDAC-1 gene (GenBank Accession No. U50079) were initially screened in T24 cells at 100 nM. Cells were harvested after 24 hours of treatment, and HDAC-1 RNA expression was analyzed by Northern blot analysis. […] HDAC-1 MM oligo was created as a control; compared to the antisense oligo, it has a 6-base mismatch.
Thirteen phosphorothloate ODNs containing sequences complementary to the 5′ or 3′ untranslated regions of the human HDAC-6 gene (GenBank Accession No. AJ011972) were screened as above. […] HDAC-6 MM oligo was created as a control; compared to the antisense oligo, it contains a 7-base mismatch.

T24 cells = experiment: Apoptosis (Cell Death Detection ELISA), T24; type: cell-based, human; settings: 50 nM, 48 hours, over mismatch control
Experimental: (§2) For all ex vivo oligo treatment, human A549 human […] carcinoma cells were seeded in 10 cm tissue culture dishes one day prior to oligonucleotide treatment. The cell lines were obtained from the American Type Culture Collection (ATCC) (Manassas, Va.) and were grown under the recommended culture conditions. Before the addition of the oligonucleotides, cells were washed with PBS (phosphate buffered saline). Next, lipofectin transfection reagent (GIBCO BRL Mississauga, Ontario, Calif.), at a concentration of 6.25 μg/ ml, was added to serum free OPTIMEM medium (GIBCO BRL, Rockville, Md.), which was then added to the cells. The oligonucleotides were added directly to the cells (i.e., one oligonucleotide per plate of cells). Mismatched oligonucleotides were used as controls. The same concentration of oligonucleotide (e.g., 50 nM) was used per plate of cells for each oligonucleotide tested.
(§3) In order to determine the effect of HDAC ODNs on cell growth inhibition and cell death through apoptosis, A549, T24, DuI45, HCT116 cells (ATCC, Manassas, Va.), or HMEC cells (BioWhittaker, Walkersville, Md.) were treated with HDAC ODNs as previously described.
(§4) For the apoptosis study, cells were analyzed using the Cell Death Detection ELISA^Plus kit (Roche Diagnostic GmBH, Mannheim, Germany) according to the manufacturer's directions. Typically, 10,000 cells were plated in 96-well tissue culture dishes for 2 hours before harvest and lysis. Each sample was analyzed in duplicate. ELISA reading was done using a MR700 plate reader (DYNEX Technology, Ashford, Middlesex, England) at 410 nm. The reference was set at 490 nm.

A549 cells [2] = experiment: Apoptosis (Cell Death Detection ELISA), A549; type: cell-based, human; settings: 50 nM, 48 hours, over mismatch control
Experimental: as §2, §3, §4
[…] Similarly, A549 cells were treated with 20 nM of HDAC1 AS in combination with 20 nM of each of AS inhibitors against human HDAC2 to HDAC8. After 48 hour treatment, A549 cells were harvested and analyzed for apoptosis by ELISA as described previously. Apoptosis of A549 cells by AS inhibition was compared to that of cells treated with 1 uM TSA for 16 hours. […] The control oligo UMM had no effect on induction of apoptosis.

HCT116 cells [3] = experiment: Growth inhibition by antisense oligos, HCT116; type: cell-based, human; settings: 50 nM, 48 hour, vs cells treated with lipofectin
Experimental: as §2, with “tested. […]” for “tested.”
(§5) For the cell growth inhibition analysis, human cancer or normal cells were treated with 50 nM of paired AS or MM oligos directed against human HDAC-1, HDAC-7 or HDAC-8for up to 96 hours. Cell numbers were counted every day by trypan blue exclusion. Percentage of inhibition was calculated as (100 - AS cell numbers/control cell numbers)%.

MDAmb231 cells [4] = experiment: Apoptosis (Cell Death Detection ELISA), MDAmb231; type: cell-based, human; settings: 50 nM, 48 hours, over mismatch control
MDAmb231 cells [5] = experiment: Growth inhibition by antisense oligos, MDAmb231; type: cell-based, human; settings: 50 nM, 48 hour, vs cells treated with lipofectin
Experimental: [The procedure below names another cell line; the source lists this cell line under the same test.] as §2, with “tested. […]” for “tested.”
as §5

HCT116 cells [6] = experiment: Inhibition of agar colony formation, HCT116; type: cell-based, human; settings: 50 nM oligos for 48 hours, vs cells treated with lipofectin
Du145 cells = experiment: Growth inhibition by antisense oligos, Du145; type: cell-based, human; settings: 50 nM, 48 hour, vs cells treated with lipofectin
Experimental: as §2, §3, §5

MDAmb231 cells [7] = experiment: Inhibition of agar colony formation, MDAmb231; type: cell-based, human; settings: 50 nM oligos for 48 hours, vs cells treated with lipofectin
A549 cells [8] = experiment: Growth inhibition by antisense oligos, A549; type: cell-based, human; settings: 50 nM, 48 hour, vs cells treated with lipofectin
Experimental: as §2, §3, §5

human HDAC-8 mRNA = experiment: HDAC-8 mRNA expression in A549 cells, Northern blot; type: cell-based
Experimental: To identify antisense oligodeoxynucleotides (ODN) capable of inhibiting HDAC-8 expression in human cancer cells, fourteen phosphorothioate ODNs containing sequences complementary to the 5′ or 3′ UTR of the human […] (GenBank Accession No. AF230097) were initially screened in A549 cells at 100 nM. Cells were harvested after 24 hours of treatment, and HDAC-8 RNA expression was analyzed by Northern blot analysis. […] Total RNAs were harvested and were analyzed by Northern Blot. GAPDH expression was analyzed to indicate total RNA loading in each lane.
In order to determine the dose response of HDAC7 antisense inhibitors to reduce HDAC7 message at the mRNA level, Human A549 cells were treated with 25 or 50 nM of antisense (AS1 and AS2) oligos directed against human HDAC-7 or the corresponding mismatch of AS1 (MM1) oligo or an universal mismatch (UMM) for 24 hours. […] The time dependence of HDAC7 antisense inhibitors on blocking HDAC7 gene expression at the mRNA level was analyzed by treating A549 cells with 50 nM AS1 or MM1 oligos. […] Similarly, A549 cells were treated with 25 nM or 50 nM of AS1 or AS2 oligos directed against human HDAC-8 or its MM oligo for AS2 (MM2) for 24 hours. AS-2 oligo against human HDAC8 at 50 nM was also used to treat A549 cells for 24 or 48 hours.
as §2
Cells were harvested, and total RNAs were analyzed by Northern blot analysis. Briefly, total RNA was extracted using RNeasy miniprep columns (QIAGEN Canada, Mississauga, Ontario). Ten to twenty […] of total RNA was run on a formaldehyde-containing 1% agarose gel with 0.5 M sodium phosphate (pH 7.0) as the buffer system. RNAs were then transferred to nitrocellulose membranes and hybridized with the indicated radiolabeled DNA probes. Autoradiography was performed using conventional procedures.

human HDAC-2 RNA = experiment: HDAC-2 RNA expression screen, Northern blot; type: cell-based; settings: screened as above (T24 cells, 100 nM, 24 hours)
Experimental: as §1
Twenty-four phosphorothioate ODNs containing sequences complementary to the 5′ or 3′ UTR of the human HDAC-2 gene (GenBank Accession No. U31814) were screened as above. […] HDAC-2 MM was created as a control; compared to the antisense oligo, it contains a 7-base mismatch.

Compound: CC(/C=C/C(=O)NO)=C\[C@@H](C)C(=O)c1ccc(N(C)C)cc1 [TSA, (R)-Trichostatin A]
- induction of differentiation [1]: potent inducer of differentiation
- inhibition of mammalian HDAC (mammalian HDAC): potent inhibitor

Compound: 5′-CAGGCTGGAATGAGCTACAG-3′ (sugars from the 5' end m4 d12 m4, all phosphorothioate, methylation of C not given here) [HD6 AS, antisense oligo, Human HDAC6 3′-UTR]
- HDAC-6 RNA expression, screen (human HDAC-6 RNA): antisense activity to human HDAC-6

Compound: 5′-GCUGCCTGCCGTGCCCACCC-3′ (sugars from the 5' end m4 d12 m4, all phosphorothioate, methylation of C not given here) [HD4 AS1, antisense oligo, Human HDAC4 5′-UTR]
- Apoptosis T24 (T24 cells): + (“+” means the induction of apoptosis at least 2 fold over mismatch control (50 nM, 48 hours))
- Apoptosis A549 (A549 cells [2]): + (“+” means the induction of apoptosis at least 2 fold over mismatch control (50 nM, 48 hours))
- Growth Inhibition HCT 116 (HCT116 cells [3]): + (“+” means >35% inhibition of cell growth by antisense oligos (50 nM, 48 hour) compared to that of cells treated with lipofectin)
- Apoptosis MDAmb 231 (MDAmb231 cells [4]): + (“+” means the induction of apoptosis at least 2 fold over mismatch control (50 nM, 48 hours))
- Growth Inhibition MDAmb 231 (MDAmb231 cells [5]): + (“+” means >35% inhibition of cell growth by antisense oligos (50 nM, 48 hour) compared to that of cells treated with lipofectin)
- inhibition of agar colony formation HCT 116 (HCT116 cells [6]): + (“+” means >35% inhibition of agar colony formation of cells treated with 50 nM oligos for 48 hours compared to that of cells treated with lipofectin)
- Growth Inhibition Du145 (Du145 cells): + (“+” means >35% inhibition of cell growth by antisense oligos (50 nM, 48 hour) compared to that of cells treated with lipofectin)
- inhibition of agar colony formation MDAmb 231 (MDAmb231 cells [7]): + (“+” means >35% inhibition of agar colony formation of cells treated with 50 nM oligos for 48 hours compared to that of cells treated with lipofectin)
- Growth Inhibition A549 (A549 cells [8]): + (“+” means >35% inhibition of cell growth by antisense oligos (50 nM, 48 hour) compared to that of cells treated with lipofectin)

Compound: 5′-AGCCAGCTGCCACTTGAUGC-3′ (sugars from the 5' end m4 d12 m4, all phosphorothioate, methylation of C not given here) [HD8 AS2, antisense oligo, Human HDAC8 3′-UTR]
- Apoptosis T24 (T24 cells): + (“+” means the induction of apoptosis at least 2 fold over mismatch control (50 nM, 48 hours))
- HDAC-8 mRNA expression, dose response (FIG. 5) (human HDAC-8 mRNA; 25 nM or 50 nM, 24 hours): inhibited in a dose-dependent manner
- HDAC-8 mRNA expression, time course (FIG. 6) (human HDAC-8 mRNA; 50 nM, 24 or 48 hours): significantly block HDAC8 expression at the mRNA level by 24 hours
- HDAC-8 RNA expression, initial screen (human HDAC-8 mRNA; 100 nM, 24 hours): good antisense activities
- Apoptosis A549 (A549 cells [2]): + (“+” means the induction of apoptosis at least 2 fold over mismatch control (50 nM, 48 hours))
- inhibition of agar colony formation HCT 116 (HCT116 cells [6]): + (“+” means >35% inhibition of agar colony formation of cells treated with 50 nM oligos for 48 hours compared to that of cells treated with lipofectin)
- Growth Inhibition Du145 (Du145 cells): + (“+” means >35% inhibition of cell growth by antisense oligos (50 nM, 48 hour) compared to that of cells treated with lipofectin)
- Growth Inhibition A549 (A549 cells [8]): + (“+” means >35% inhibition of cell growth by antisense oligos (50 nM, 48 hour) compared to that of cells treated with lipofectin)

Compound: 5′-GCUGAGCTGTTCTGATUUGG-3′ (sugars from the 5' end m4 d12 m4, all phosphorothioate, methylation of C not given here) [HD2 AS, antisense oligo, Human HDAC2 3′-UTR]
- HDAC-2 RNA expression, screen (human HDAC-2 RNA): antisense activity to human HDAC-2
- Growth Inhibition Du145 (Du145 cells): + (“+” means >35% inhibition of cell growth by antisense oligos (50 nM, 48 hour) compared to that of cells treated with lipofectin)
